We go through one molecule from patent publication US20040014779A1, “Methods and compositions related to IRM compounds and toll-like recptor pathways” (3M Innovative Properties Company, priority 2001, published 2004).

The test system of one assay is TLR7. Description: TNF-α production by THP-1 cells transfected with TLR7DN vs vector control. It is filed as cell-based, human. From the text: The human TLR7 dominant negative construct was generated in a manner similar to that used to generate the human TLR6 dominant negative construct. The proline to histidine mutation for human was introduced at amino acid 932 along with a Bam HI restriction enzyme site (5′ sense: SEQ ID NO 9; 5′ antisense: SEQ ID NO 10; 3′ sense: SEQ ID NO 11; 3′ antisense: SEQ ID NO 12).
The amplified 5′ and 3′ sections of each human dominant negative TLR was inserted into pCR-Blunt II-TOPO for sequence verification. The 5′ and 3′ sections were joined together when subcloned into pIRES (Clontech, Palo Alto, Calif.) for expression in mammalian cells.
THP-1 cells (maintained at cell number less than 1×10^6 cells/ml) were co-transfected with the plamid vector containing either the TLR6DN or TLR7DN construct and with a murine H2K^k plasmid (Miltenyi Biotec Inc., Auburn, Calif.) in a 4:1 ratio of TLR plasmid to H2K^k plasmid. Transfection of THP-1 cells was carried out using the transfection reagent FuGENE 6 (Roche Diagnostics Corp., Indianapolis, Ind.) according to the manufacturer's specifications. […]
(§1) TNF-α levels were measured with a commercial Human TNF-α ELISA kit (Biosource International, Inc., Camarillo, Calif.) according to the manufacturer's specifications. […]

In another assay the target is T1, TLR6 (Mus musculus, UniProt Q9EPW9, P680H).
T1 construct: expressed in transfected cells; host or cells: RAW 264.7 (pIRES vector)
T1 sequence (Q9EPW9 28-795 P680H): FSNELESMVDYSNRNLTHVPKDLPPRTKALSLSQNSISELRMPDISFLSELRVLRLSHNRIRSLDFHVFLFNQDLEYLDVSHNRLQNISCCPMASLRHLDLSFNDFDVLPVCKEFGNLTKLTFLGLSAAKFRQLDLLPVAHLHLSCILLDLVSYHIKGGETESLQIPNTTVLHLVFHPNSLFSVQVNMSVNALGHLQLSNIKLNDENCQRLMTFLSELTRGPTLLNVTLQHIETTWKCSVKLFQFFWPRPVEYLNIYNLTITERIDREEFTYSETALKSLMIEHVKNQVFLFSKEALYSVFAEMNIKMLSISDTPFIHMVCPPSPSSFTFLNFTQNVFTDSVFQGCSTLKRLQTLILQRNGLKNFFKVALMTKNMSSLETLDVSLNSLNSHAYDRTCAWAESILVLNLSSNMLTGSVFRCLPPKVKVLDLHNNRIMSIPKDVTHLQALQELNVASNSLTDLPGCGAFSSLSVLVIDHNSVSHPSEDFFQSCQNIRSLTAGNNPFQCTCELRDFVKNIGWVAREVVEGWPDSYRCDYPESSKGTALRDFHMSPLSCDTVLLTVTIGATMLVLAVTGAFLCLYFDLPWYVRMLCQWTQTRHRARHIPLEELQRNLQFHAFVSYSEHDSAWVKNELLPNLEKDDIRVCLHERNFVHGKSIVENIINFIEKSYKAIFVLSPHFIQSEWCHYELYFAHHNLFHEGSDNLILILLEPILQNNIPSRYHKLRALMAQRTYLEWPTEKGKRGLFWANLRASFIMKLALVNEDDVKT
T1 sequence (Q9QUN7 25-784 partner): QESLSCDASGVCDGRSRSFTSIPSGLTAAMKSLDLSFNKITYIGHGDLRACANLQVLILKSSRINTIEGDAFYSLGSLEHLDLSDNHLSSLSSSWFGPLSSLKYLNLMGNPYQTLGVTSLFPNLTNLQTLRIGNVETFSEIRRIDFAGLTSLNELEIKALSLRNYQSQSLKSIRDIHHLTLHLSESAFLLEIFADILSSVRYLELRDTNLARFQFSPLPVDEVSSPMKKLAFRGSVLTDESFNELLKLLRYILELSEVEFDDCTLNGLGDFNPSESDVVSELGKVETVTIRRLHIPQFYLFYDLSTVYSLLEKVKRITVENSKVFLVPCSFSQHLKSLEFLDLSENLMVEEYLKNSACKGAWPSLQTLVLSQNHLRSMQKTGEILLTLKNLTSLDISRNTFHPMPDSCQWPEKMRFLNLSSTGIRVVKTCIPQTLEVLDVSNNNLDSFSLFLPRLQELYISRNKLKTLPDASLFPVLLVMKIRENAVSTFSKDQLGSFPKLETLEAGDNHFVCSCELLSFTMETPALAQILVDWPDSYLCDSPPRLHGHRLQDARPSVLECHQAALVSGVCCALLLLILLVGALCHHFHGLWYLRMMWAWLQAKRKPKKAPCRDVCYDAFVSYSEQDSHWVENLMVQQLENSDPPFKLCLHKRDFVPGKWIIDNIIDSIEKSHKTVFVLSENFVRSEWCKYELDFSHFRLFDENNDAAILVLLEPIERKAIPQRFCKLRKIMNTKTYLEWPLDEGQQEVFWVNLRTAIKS
Description: TNF-α production by RAW 264.7 cells transfected with TLR6DN. It is filed as cell-based.
Source text: A murine TLR6 dominant negative construct was generated by PCR mutation during amplification from RAW 264.7 cell cDNA. The 5′ and 3′ regions flanking a codon encoding proline 691 were amplified with primers (5′ sense: SEQ ID NO 1; 5′ antisense: SEQ ID NO 2; 3′sense: SEQ ID NO 3; 3′ antisense: SEQ ID NO 4) that changed the codon for proline 691 to a codon encoding histidine while introducing a unique Apa LI restriction enzyme site at the position of the mutation. The 5′ and 3′ sections of the TLR6 were amplified by Pfu Turbo DNA polymerase kit (Stratagene, La Jolla, Calif.). The PCR sections were inserted into pCR-Blunt II-TOPO for sequence verification. The two sections were joined together when subcloned into pIRES (Clontech, Palo Alto, Calif.) for expression in mammalian cells.
RAW 264.7 cells were co-transfected with a truncated human CD4 for RAW 264.7 cells in a 4:1 ratio of TLR plasmid to CD4 plasmid. Transfection of RAW 264.7 cells was carried out using the transfection reagent DoTaP (Roche Diagnostics Corp., Indianapolis, Ind.) according to the manufacturer's specifications. […]
as §1

Each structure is given as a SMILES string.

As for `CCOCc1nc2c(N)nc3ccccc3c2n1CC(C)(C)O` [Resiquimod, 4-amino-2-ethoxymethyl-α,α-dimethyl-1H-imidazo[4,5-c]quinoline-1-ethanol], the “Effect of TLR7DN on stimulus-induced TNF-α production (in words)” value in the assay on TLR7 (compared to control vector) was “inhibited”. Moreover, the “TLR7DN % inhibition of TNF-α production” value with TLR7 (stimulus 3 μM, 18 hours, relative to vector control) was determined as 55.3%. Moreover, the “Effect of TLR6DN on stimulus-induced TNF-α production (in words)” value at TLR6 (compared with stimulation by LPS) is “inhibited to a much greater extent”. In addition, the “% inhibition of TNF-α production (TLR6DN)” value at TLR6 (stimulus 3 μM) is 70.9%.
